For 4 compounds, Ki results are on record in patent US7223780B2, “Triazole-derivatives as blood clotting enzyme factor Xa inhibitors” (Sanofi-Aventis Deutschland GmbH, priority 2003, dated 2007).

This assay addresses T1, human factor Xa (Homo sapiens, UniProt P00742).
T1 construct: 25 μl human factor Xa (Enzyme Research Laboratories, Inc; South Bend, Ind.); purchased Enzyme Research Laboratories, Inc; South Bend, Ind
Kind of assay: Factor Xa chromogenic assay (substrate S-2765). The note with it: inhibition constant for factor Xa, calculated from IC50 by Ki=IC50/{1+(substrate concentration/Km)}; 0.5 nM enzyme, 140 μM S-2765, 25° C.; read-out: Ki(FXa). The class given is biochemical. On the procedure: The ability of the compounds of the formula I or II to inhibit factor Xa or factor VIIa or other enzymes like thrombin, plasmin, or trypsin can be assessed by determining the concentration of the compound of the formula I or II that inhibits enzyme activity by 50%, i.e. the IC50 value, which was related to the inhibition constant Ki. Purified enzymes were used in chromogenic assays. The concentration of inhibitor that causes a 50% decrease in the rate of substrate hydrolysis was determined by linear regression after plotting the relative rates of hydrolysis (compared to the uninhibited control) versus the log of the concentration of the compound of formulae I, II, Ia, Ib, Ic, Id, IIa, IIb or IId. For calculating the inhibition constant Ki, the IC50 value was corrected for competition with substrate using the formula Ki=IC50/{1+(substrate concentration/Km)} wherein Km is the Michaelis-Menten constant (Chen and Prusoff, Biochem. Pharmacol. 22 (1973) 3099–3108; I. H. Segal, Enzyme Kinetics, 1975, John Wiley & Sons, New York, 100–125; which were incorporated herein by reference). a) Factor Xa Assay
In the assay for determining the inhibition of factor Xa activity TBS-PEG buffer (50 mM Tris-HCl, pH 7.8, 200 mM NaCl, 0.05% (w/v) PEG-8000, 0.02% (w/v) NaN3) was used. The IC50 was determined by combining in appropriate wells of a Costar half-area microtiter plate 25 μl human factor Xa (Enzyme Research Laboratories, Inc.; South Bend, Ind.) in TBS-PEG; 40 μl 10% (v/v) DMSO in TBS-PEG (uninhibited control) or various concentrations of the compound to be tested diluted in 10% (v/v) DMSO in TBS-PEG; and substrate S-2765 (N((α)-benzyloxycarbonyl-D-Arg-Gly-L-Arg-p-nitroanilide; Kabi Pharmacia, Inc.; Franklin, Ohio) in TBS-PEG.
The assay was performed by pre-incubating the compound of formula I or II plus enzyme for 10 min. Then the assay was initiated by adding substrate to obtain a final volume of 100 μl. The initial velocity of chromogenic substrate hydrolysis was measured by the change in absorbance at 405 nm using a Bio-tek Instruments kinetic plate reader (Ceres UV900HDi) at 25° C. during the linear portion of the time course (usually 1.5 min after addition of substrate). The enzyme concentration was 0.5 nM and substrate concentration was 140 μM.

SMILES strings stand for the structures.

T1 sequence (P00742 235-488 limits assumed): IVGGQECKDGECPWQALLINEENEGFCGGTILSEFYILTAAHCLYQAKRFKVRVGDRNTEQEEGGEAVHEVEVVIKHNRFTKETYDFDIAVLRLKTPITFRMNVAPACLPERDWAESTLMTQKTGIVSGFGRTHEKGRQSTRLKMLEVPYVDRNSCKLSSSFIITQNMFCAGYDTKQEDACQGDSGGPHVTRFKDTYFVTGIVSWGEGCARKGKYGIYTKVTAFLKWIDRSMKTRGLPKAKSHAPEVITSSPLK
T1 sequence (P00742 41-179 partner limits assumed): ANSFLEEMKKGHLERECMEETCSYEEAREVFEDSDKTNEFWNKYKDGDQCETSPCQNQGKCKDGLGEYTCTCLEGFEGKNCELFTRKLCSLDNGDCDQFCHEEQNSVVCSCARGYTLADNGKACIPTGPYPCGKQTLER

For the compound `CC(C)N1CCC(NC(=O)c2nc(-n3cccc3)n(Cc3cc(-c4ccc(Cl)s4)on3)n2)CC1` [Example 1, 1-[5-(5-Chloro-thiophen-2-yl)-isoxazol-3-ylmethyl]-5-pyrrol-1-yl-1H-[1,2,4]triazole-3-carboxylic acid (1-isopropyl-piperidin-4-yl)-amide], the Ki (as a rule, a measure of affinity in units of concentration, obtained from inhibition or displacement) was 54 nM.
Consider `CC(C)N1CCC(NC(=O)c2nc(-c3ccccn3)n(Cc3cc(-c4ccc(Cl)s4)on3)n2)CC1` [Example 2, 1-[5-(5-Chloro-thiophen-2-yl)-isoxazol-3-ylmethyl]-5-pyridin-2-yl-1H-[1,2,4]triazole-3-carboxylic acid (1-isopropyl-piperidin-4-yl)-amide], for which the Ki was 80 nM.
On to `CC(C)N1CCC(NC(=O)c2nc(-c3ccccn3)nn2Cc2cc(-c3ccc(Cl)s3)on2)CC1` [Example 3, 2-[5-(5-Chloro-thiophen-2-yl)-isoxazol-3-ylmethyl]-5-pyridin-2-yl-2H-[1,2,4]triazole-3-carboxylic acid (1-isopropyl-piperidin-4-yl)-amide], for which the Ki was 100 nM.
As for `CC(C)N1CCC(NC(=O)c2nnn(Cc3cc(-c4ccc(Cl)s4)on3)n2)CC1` [Example 5, 2-[5-(5-Chloro-thiophen-2-yl)-isoxazol-3-ylmethyl]-2H-tetrazole-5-carboxylic acid (1-isopropyl-piperidin-4-yl)-amide], the Ki was 330 nM.
